Measurements taken from US6780995B2, “Activated iododerivatives for the treatment of cancer and aids” (Isotechnika Inc., priority 1997, dated 2004).
Read-outs that look alike come from different tables or passages of the source.

Assays:
[1] = test system: M14 cells; experiment: IC50 assay, inhibition of cell proliferation and growth, M14; format: cell-based, human; conditions: M14 melanoma cell line, neutral red or crystal violet, read-out: IC50 Concentrations, M14
Description: (§1) Cell culture: The human cell lines were propagated under sterile conditions in RPMI 1640 (CellGrow) with 10% fetal bovine serum (Hyclone), 2 mM L-glutamine, and sodium bicarbonate (complete medium) and incubated at 37° C. in HEPA-filtered Sterilcult CO2 tissue culture incubators (Forma) with 5% CO^2 and 95% humidity (Table 1). The murine leukemia cell lines were propagated in Dulbecco's MEM media with 10% equine serum (Hyclone), 2 mM L-glutamine, and sodium bicarbonate (complete medium) and incubated as described. The cells were subcultured twice weekly and used in experiments. The culture was screened for mycoplasma contamination using GeneProbe™ (Fisher) and positive cultures were cured of contaminants over three passages using constant treatment with BM-Cyclin™ antibiotic combination (Boehringer Mannheim). Only cultures confirmed as mycoplasma free were used in testing compounds for anticellular activity.
(§2) The test compounds were stored at 4° C. under light protected conditions. The test compounds were weighed and dissolved in DMSO. The dissolved compounds were then serially diluted in warm medium (RPMI 1640 or Dulbecco's MEM) under constant mixing to minimize precipitation. The positive control drug doxorubicin was diluted in water followed by dilution in media to achieve a final concentration of 200 nM.
(§3) For all experiments, the cells were harvested and centrifuged to remove the media, and suspended in fresh completed medium. Samples were taken to determine cell density. The cell count was determined with a Coulter Model Z1 cell counter and viability was measured with propidium iodide staining followed by analysis on a Coulter EPPICS Elite Flow cytometer. The cell samples sere adjusted with complete medium to a density of 5×10^4/mL for adherent cell lines and 1×10^5/mL for suspension lines. Tissue culture cluster plates (96 well, cat. No. 3595 Costar for adherent human lines and cat No. 25850 Corning for murine leukemias) were seeded with 100 μL cells and incubated as described. Replicate groups of plates were set up for each line to accommodate the exposure options for single agents and combinations. For each dilution 8 wells (100 μL samples of cells) were treated with 100 μL of dosing solution one day after plating. Each cluster plate contained a cell control (8 wells, mock-treated with complete medium), a medium control (3 wells with medium used to subtract out signal generated by media conditions), and an air blank (1 well, for calibrating the plate reader).
(§4) Anticellular effects of the compounds for the adherent cell lines were assessed with neutral red dye. On the day of analysis, the media was removed from sample cell monolayers and replaced with 0.1 mL of neutral red solution (0.5% neutral red, HBSS:RPMI 1640 (1:1), 0.05 M HEPES, pH 7.2). After incubation of the samples at 37° C. for 1 hour the excess dye was removed with blotting and the monolayers were washed twice with 0.85% NaCl solution (0.1 mL per wash). The cell associated dye was extracted by adding 0.2 mL of a 0.1 M NaH2PO4:ethanol (1:1) solution/well followed by incubation for 1 hour at 35° C. The absorbency of neutral red in each monolayer was measured at 550 nm (620 nm reference beam) on a Denley Anthos 2001 microplate reader. The data were transferred via the ARCOM software capture program in Lotus 1-2-3 for processing.
(§5) In assays where technical difficulties due to crystalization of the neutral red occurred the crystal violet staining procedure was employed to measure the amount of cells were left on the plate. Crystal violet staining solution [0.5% crystal violet (w/v), 50% methanol (v/v), 45% saline (v/v), and 5% formalin (v/v)] were prepared on the day of staining. After the media was removed from the sample wells, two drops of crystal violet stain were added to each well and the samples were incubated at ambient temperature for 10 minutes. […]

[2] = test system: COLO 205 cells; experiment: IC50 assay, inhibition of cell proliferation and growth, COLO 205; format: cell-based, human; conditions: COLO 205 colon adenocarcinoma cell line, neutral red or crystal violet, read-out: IC50 Concentrations, COLO 205
Description: as §1, §2, §3, §4, §5

[3] = test system: MCF7 cells; experiment: IC50 assay, inhibition of cell proliferation and growth, MCF7; format: cell-based, human; conditions: MCF7 breast adenocarcinoma cell line, neutral red or crystal violet, read-out: IC50 Concentrations, MCF 7
Description: as §1, §2, §3, §4, §5

[4] = test system: P388 cells; experiment: IC50 assay (XTT), inhibition of cell proliferation and growth, P388; format: cell-based; conditions: P388 murine leukemia cell line, XTT dye conversion, read-out: IC50 Concentrations, P388
Description: as §1, §2, §3
(§6) Anticellular effects of the murine leukemia cell lines were assessed with the XTT dye conversion assay which is more suited to suspension cultures. On the day of analysis XTT[2,3-bis(2-methoxy-4-nitro-5-sulfophenyl)-5-[(phenylamino)carbenyl]-2H-tetrazolium hydroxide, inner salt, sodium salt (Sigma)] was weighed out and dissolved at 1 mg/mL in media. PMS (phenazine methosulfate) was prepared at 5 mM in PBS (phosphate buffered saline) and stored as a stock solution 4° C. The PMS was mixed with dissolved XTT to a final concentration of 0.025 mM. Sample wells were treated with 50 μL of the XTT solution and the plates were incubated for four hours at 37° C. to allow for conversion into the liquid soluble formazan product. After the incubation period the reaction was stopped by adding 10 μL of 10% SDS solution per well and the wells contents of each plate were mixed by agitation. The absorbancy of formazan in each monolayer was measured at 450 nm (620 nm reference beam) on a Denley Anthos 2001 microplate reader. The data were transferred via the ARCOM software capture program into Lotus 1-2-3 for processing.
(§7) Using the procedures described above, concentrations of the Example compounds necessary to inhibit cell proliferation and growth by 50% (1C50 values) were determined in the test cell lines.

[5] = test system: A549 cells; experiment: IC50 assay, inhibition of cell proliferation and growth, A549; format: cell-based, human; conditions: A549 bronchogenic cell line, neutral red or crystal violet, read-out: IC50 Concentrations, A 549
Description: as §1, §2, §3, §4, §5

[6] = test system: SK-OV-3 cells; experiment: IC50 assay, inhibition of cell proliferation and growth, SK-OV-3; format: cell-based, human; conditions: SK-OV-3 ovarian adenocarcinoma cell line, neutral red or crystal violet, read-out: IC50 Concentrations, SK-OV-3
Description: as §1, §2, §3, §4, §5

[7] = test system: B16 cells; experiment: IC50 assay, inhibition of cell proliferation and growth, B16; format: cell-based; conditions: B16 murine melanoma cell line, neutral red or crystal violet, read-out: IC50 Concentrations, B16
Description: as §1, §2, §3, §4, §5

[8] = test system: SK-MEL-5 cells; experiment: IC50 assay, inhibition of cell proliferation and growth, SK-MEL-5; format: cell-based, human; conditions: SK-MEL-5 melanoma cell line, neutral red or crystal violet, read-out: IC50 Concentrations, SK MEL-5
Description: as §1, §2, §3, §4, §5

[9] = test system: L1210 cells; experiment: IC50 assay (XTT), inhibition of cell proliferation and growth, L1210; format: cell-based; conditions: L1210 murine leukemia cell line, XTT dye conversion, read-out: IC50 Concentrations, L1210
Description: as §1, §2, §3, §6, §7

[10] = test system: RPMI 8226 cells; experiment: IC50 assay, inhibition of cell proliferation and growth, RPMI 8226; format: cell-based; conditions: Homo sapiens; RPMI 8226 myeloma cell line; read-out: IC50 Concentrations, RPM 18226
Description: as §1, §2, §3, §7

## N-(4′-Pyridyl)-2-Iodo-5-Nitrophenyl Hydrazide [Ref. No. 10]
[1]
  IC50: > 500 µM
[2]
  IC50: 441 µM
[3]
  IC50: > 500 µM
[4]
  IC50: > 18.5 µM
[5]
  IC50: > 500 µM
[6]
  IC50: 361 µM
[7]
  IC50: 301 µM
[8]
  IC50: > 500 µM
[9]
  IC50: > 18.5 µM

## O=C(Nc1nnc(C(F)(F)F)s1)c1cc([N+](=O)[O-])ccc1I [Ref. No. 18]
[1]; Homo sapiens
  IC50: 27.3 µM
[2]; Homo sapiens
  IC50: 41.3 µM
[3]; Homo sapiens
  IC50: 24 µM
[10]
  IC50: 16.7 µM
other
  melting point: 219 to 221 °C
[4]; Mus musculus
  IC50: 12.8 µM
[5]; Homo sapiens
  IC50: 15.7 µM
[6]; Homo sapiens
  IC50: 73 µM
[7]; Mus musculus
  IC50: 20.8 µM
[8]; Homo sapiens
  IC50: 28.8 µM
[9]; Mus musculus
  IC50: 28.4 µM

## O=C(NC1=NCCS1)c1cc([N+](=O)[O-])ccc1I [Ref. No. 23, 2-(2′-Iodo-5′-Nitro-Benzamido)-2-Thiazoline]
[1]; Homo sapiens
  IC50: 150 µM
[2]; Homo sapiens
  IC50: 81.9 µM
[3]; Homo sapiens
  IC50: 162 µM
[10]
  IC50: 237 µM
other
  melting point: 176 to 179 °C
[4]; Mus musculus
  IC50: 353 µM
[5]; Homo sapiens
  IC50: > 500 µM
[6]; Homo sapiens
  IC50: > 500 µM
[7]; Mus musculus
  IC50: 129 µM
[8]; Homo sapiens
  IC50: 125 µM
[9]; Mus musculus
  IC50: > 500 µM

## Cc1cnc(NC(=O)c2cc([N+](=O)[O-])ccc2I)s1 [Ref. No. 22, 2(2′-Iodo-5′-Nitro-Benzamido)-5-Methyl-Thiazole]
[1]; Homo sapiens
  IC50: 14.5 µM
[2]; Homo sapiens
  IC50: 13.5 µM
[3]; Homo sapiens
  IC50: 14.8 µM
[10]
  IC50: 12.7 µM
[4]; Mus musculus
  IC50: 3.64 µM
[5]; Homo sapiens
  IC50: 45.2 µM
[6]; Homo sapiens
  IC50: 16.1 µM
[7]; Mus musculus
  IC50: 6.2 µM
[8]; Homo sapiens
  IC50: 15.3 µM
[9]; Mus musculus
  IC50: 12.8 µM

## Cc1csc(NC(=O)c2cc([N+](=O)[O-])ccc2I)n1 [Ref. No. 21, 2-(2′-Iodo-5′-Nitro-Benzamido)-4-Methyl-Thiazole]
[1]; Homo sapiens
  IC50: 13.2 µM
[2]; Homo sapiens
  IC50: 5.59 µM
[3]; Homo sapiens
  IC50: 12.5 µM
[10]
  IC50: 3.33 µM
[4]; Mus musculus
  IC50: 3.44 µM
[5]; Homo sapiens
  IC50: 43.7 µM
[6]; Homo sapiens
  IC50: 15.7 µM
[7]; Mus musculus
  IC50: 5.13 µM
[8]; Homo sapiens
  IC50: 15 µM
[9]; Mus musculus
  IC50: 12.8 µM

## CCOC(=O)c1sc(NC(=O)c2cc([N+](=O)[O-])ccc2I)nc1C [Ref. No. 16]
[1]; Homo sapiens
  IC50: 37.3 µM
[2]; Homo sapiens
  IC50: 31.2 µM
[3]; Homo sapiens
  IC50: 34.3 µM
[10]
  IC50: 10.6 µM
other
  melting point: 211 to 212 °C
[4]; Mus musculus
  IC50: 11.2 µM
[5]; Homo sapiens
  IC50: 30.1 µM
[6]; Homo sapiens
  IC50: 41.2 µM
[7]; Mus musculus
  IC50: 7.93 µM
[8]; Homo sapiens
  IC50: 41.7 µM
[9]; Mus musculus
  IC50: 41.1 µM

## Cc1ccc(-c2csc(NC(=O)c3cc([N+](=O)[O-])ccc3I)n2)cc1 [Ref. No. 19, 2(2′-Iodo-5′-Nitro-Benzamido)-4-tolyl-Thiazole]
[1]; Homo sapiens
  IC50: 14.4 µM
[2]; Homo sapiens
  IC50: 18.2 µM
[3]; Homo sapiens
  IC50: 35.5 µM
[10]
  IC50: 11.8 µM
other
  melting point: 244 to 248 °C
[4]; Mus musculus
  IC50: 2.43 µM
[5]; Homo sapiens
  IC50: 163 µM
[6]; Homo sapiens
  IC50: 33.2 µM
[7]; Mus musculus
  IC50: 5.15 µM
[8]; Homo sapiens
  IC50: 51.3 µM
[9]; Mus musculus
  IC50: 13.5 µM
